Earlier results on one substance are cited in patent US10104888B2, “Tannin-chitosan composites” (WISCONSIN ALUMNI RESEARCH FOUNDATION, priority 2009, dated 2018).

Bounds are passed on as bounds.

For the series the following is noted: in vivo.

With “poly(β-(1→4)-2-amino-2-deoxy-D-glucopyranose) [Chitosan]”, the LD50 was above 16000 mg/kg.

By LD50 is commonly meant the dose at which mortality reaches 50%.
